Assay results published in patent US7807719B2, “Compounds useful for modulating abnormal cell proliferation” (priority 2004, dated 2010).
pIC50: −log10 of the molar value.

How the values were obtained:
Assay type in all cases: cell-based
[1] = system: Z119 cells; assay: Killing of Philadelphia positive Z119 acute lymphoblastic leukemia cells in culture (colony assay); settings: Z119 Philadelphia positive ALL cells, methylcellulose colony count at 7-9 days; read-out: ALL (Z 119) IC50
Procedure: Z119 cells were plated in 1 ml volumes at a density of 5×10^4 cells/ml, in the absence of exogenous growth factors, into 35 mm petri dishes (Nunc, Gibco) containing IMDM (OCI, Toronto) plus 20% FCS (Cansera Rexdale, ON.) in 0.9% (vol/vol) methylcellulose (Fluka, Switzerland) with the indicated concentration of for various test compounds described above. Cultures were set at 37° C., 5% CO2 in a humidified atmosphere. Colonies consisting of more than 20 cells were counted at 7-9 days using an inverted microscope.

[2] = system: OCI-AML-3 cells; assay: Killing of AML-3 acute myeloid leukemia cells in culture (colony assay); settings: Homo sapiens, methylcellulose colony count at 5-6 days
Procedure: OCI-AML-3 cells were plated in 35 mm petri dishes (Nunc, Gibco) in 1 ml volumes at a density of 3.3×10^3 cells/ml, in the absence of exogenous growth factors, containing alpha MEM plus 30% FCS (Cansera, Rexdale Ont.), and 0.9% (vol/vol) methylcellulose (Fluka, Switzerland) and the indicated concentrations of for various test compounds described above. Cell cultures were incubated in a humidified atmosphere at 37° C. with 5% CO2. Colonies containing more than 20 cells were scored, using an inverted microscope, at 5-6 days.

[3] = system: C1 cells; assay: Killing of Philadelphia negative C1 acute lymphoblastic leukemia cells in culture (colony assay); settings: C1 Philadelphia negative ALL cells, methylcellulose colony count in 5-7 days
Procedure: C1 (at 2×10^4 cells/ml) were plated in 1 ml volumes, in the absence of exogenous growth factors, into 35 mm Petri dishes (Nunc, Gibco) containing alpha MEM (Gibco) plus 10% FCS (Cansera Rexdale, Ont.) in 0.9% (vol/vol) methylcellulose (Fluka, Switzerland). Cultures were set up at 37° C. with 5% CO2 in a humidified atmosphere. Colonies consisting of more than 20 cells were counted in 5-7 days using an inverted microscope. For further information, see Leukemia, Vol. 6, No. 1, 1992, pg. 8-17 and Nature, Vol. 379, 15 Feb. 1996.

[4] = system: normal bone marrow cells (BFU-E); assay: Effect upon normal bone marrow differentiation in culture (CFU-GEMM assay, BFU-E colonies); settings: Bone marrow cell, 336 h, BFU-E colonies evaluated at 14 days, read-out: NBM (BFU-E) IC50
Procedure: The CFU-GEMM assay was performed according to Fauser and Messner (1978, Blood, 52(6) 143-8) and Messner and Fausser (1980, Blut, 41(5) 327-33) with some variations. In brief, heparinized bone marrow cells were layered over Percoll (1.077 gm/ml) (Pharmacia Fine Chemical, Piscataway N.J.) and centrifuged at 400 g at 4° C. for 10 minutes to remove neutrophils and RBCs. The fractionated BM cells at 2×10^5 cells/ml were cultured in IMDM (OCI, Toronto) containing 0.9% (vol/vol) methylcellulose supplemented with 30% FCS (Cansera Rexdale, ON.) or normal human plasma, a cocktail of cytokines containing G-CSF (10 ng/ml, Amgen), IL-3 (40 U/ml, Immunex), MGF (50 ng/ml, Immunex), Erythropoietin (2 u/ml, Epprex) or TPO (10 ng/ml, Amgen), 5×10^−5 M β-2-mercaptoethanol and the specified concentration of CR4. The culture mixture was plated in 1 ml volumes into 35 mm petri dishes and incubated at 37° C., 5% CO2 in a humidified atmosphere. All cultures were evaluated at 14 days for the number of BFU-E colonies (defined as aggregates of more than 500 hemoglobinized cells or, 3 or more erythroid subcolonies), OFU-GM colonies (defined as granulocyte or monocyte-macrophage cells or both), CFU-Meg colonies (comprising 4 or more megakaryocytes) and CFU-GEMM colonies (a mixed population comprising of all elements).

Row | Structure (SMILES) | pIC50 [1] | pIC50 [2] | pIC50 [3] | pIC50 [4]
1 | N#C/C(=C\C=C\c1ccco1)C(=O)NCc1ccc(O)c(O)c1 [CRH-48, 2-cyano-5-furan-2-yl-penta-2E,4E-dienoic acid 3,4-dihydroxybenzylamide] | 6.30 to 6.60 | 6.64 | ≤ 6.60 | ≥ 5.00
2 | N#C/C(=C\c1ccc(/C=C/c2ccncc2)cc1)C(=O)NCc1ccc(O)c(O)c1 [CRS-76, 2-cyano-N-(3,4-dihydroxybenzyl)-3-[4-(2-pyridin-4-yl-trans-vinyl)-phenyl]-E-acrylamide] | < 6.00 | – | – | < 5.00
3 | N#C\C(=C/C=C/C=C/c1ccc(O)c(O)c1)C(=O)NCc1ccccc1 [CRT-88, 2-Cyano-7-(3,4-dihydroxyphenyl)hepta-2E,4E,6E-trienoic acid benzyl-amide] | > 6.30 | – | – | 5.27 to 5.51
4 | N#C/C(=C\C=C\c1cccnc1)C(=O)NCc1ccc(O)c(O)c1 [CRH-58, 2-cyano-5-pyridin-3-yl-penta-2E,4E-dienoic acid 3,4-dihydroxybenzylamide] | 6.59 | < 6.30 | < 6.30 | 5.01 to 5.12
5 | N#C/C(=C\c1ccc(/C=C/c2ccncc2)cc1)C(=O)NCc1ccncc1 [CRS-77, 2-cyano-N-pyridin-4-ylmethyl-3-[4-(2-pyridin-4-yl-trans-vinyl)phenyl]-E-acrylamide] | < 6.00 | – | – | < 5.00
6 | N#C/C(=C\c1ccc(/C=C/c2ccccc2)cc1)C(=O)NCc1ccncc1 [CRS-75, 2-cyano-N-pyridin-4-ylmethyl-3-(4-trans-styrylphenyl)-E-acrylamide] | < 6.00 | ≤ 6.30 | ≤ 6.30 | < 5.00
7 | N#C/C(=C\C(Cl)=C\c1ccccc1)C(=O)NCc1ccc(O)c(O)c1 [CRC-47, 4-chloro-2-cyano-5-phenyl-penta-2E,4Z-dienoic acid 3,4-dihydroxybenzylamide] | > 6.90 | – | – | > 5.30
8 | N#C/C(=C\C=C\c1cccnc1)C(=O)NCc1ccccc1 [CRH-59, 2-cyano-5-pyridin-3-yl-penta-2E,4E-dienoic acid benzylamide] | < 6.00 | – | – | < 5.00
9 | N#C/C(=C\C=C\c1cccs1)C(=O)NCc1ccc(O)c(O)c1 [CRH-60, 2-cyano-5-thiophen-2-yl-penta-2E,4E-dienoic acid 3,4-dihydroxybenzylamide] | > 6.30 | – | – | 5.15
10 | N#C/C(=C\C=C\c1cc(O)ccc1O)C(=O)NCc1ccccc1 [CRO-70, 2-Cyano-5-(2,5-dihydroxyphenyl)penta-2E,4E-dienoic acid benzylamide] | 6.59 | < 6.30 | < 6.30 | 5.16
11 | COc1cc(/C=C/C=C/C=C(\C#N)C(=O)NCc2ccc(O)c(O)c2)ccc1O [CRT-67, 2-cyano-7-(4-hydroxy-3-methoxyphenyl)hepta-2E,4E,6E-trienoic acid 3,4-dihydroxybenzylamide] | ≥ 6.30 | < 6.30 | < 6.30 | 4.99
